Assay results from patent US20140051635A1, “COMBINATION THERAPY FOR TREATMENT OF CANCER” (UNIVERSITY OF SOUTH ALABAMA, priority 2011, published 2014).
Where two headings read alike, the source gives them in different places.

Columns and labels:
[1] = system: SPARC expression in colon cancer cell lines and primary colon cancers; conditions: colon cancer cell lines and primary colon cancers with SPARC promoter hypermethylation; cited from earlier work
[2] = system: advanced or metastatic solid tumors; conditions: human, in vivo
Description: Eligible patients include those with solid tumors that progressed or were stable as best response on at least one previous therapy. […] Further criteria included: female and male patients; age≧19 years; ECOG PS≦2; adequate bone marrow, liver and heart function; and signed written-informed consent.
Serum and/or tissue samples, where appropriate, were collected for correlative studies.
Outcome evaluation for primary endpoints included: type, incidence, severity, timing, seriousness, and relatedness of adverse events, and laboratory abnormalities; and objective response rate. Outcome evaluation for secondary endpoints included: progression-free survival (PFS); and expression of tissue SPARC protein. Statistical Analysis included the standard 3+3 design. Patients were accrued to each dose level in cohorts of up to 3-6. Escalation was continued until a dose limiting toxicity (DLT) was observed or the highest dose-level was reached. The best response, including complete response (CR), partial response (PR), stable disease (SD), or progression of disease (PD), for each patient was determined. Descriptive statistics were used to summarize all patient characteristics, treatment administration and compliance, and protein biomarkers. Safety data were determined for all patients receiving at least 1 dose of study treatment.

[3] = mice; cited from earlier work
[4] = rats; cited from earlier work
[5] = cited from earlier work
[6] = parenteral, administered weekly; cited from earlier work
MDS = MDS patients; cited from earlier work
AML = conditions: 27 patients assigned to azacitidine; cited from earlier work
higher-risk MDS = conditions: cited from earlier work
[7] = system: breast cancer, patients pre-treated with doxorubicin; conditions: cited from earlier work

Nc1ncn([C@H]2C[C@H](O)[C@@H](CO)O2)c(=O)n1 [5Aza-dC]
SPARC expression [1]: able to upregulate SPARC expression in most cases

Nc1ncn([C@@H]2O[C@H](CO)[C@@H](O)[C@H]2O)c(=O)n1 [azacitidine]
maximum tolerated dose of azacitadine in this regimen [2]: 75 mg/m^2 | embryotoxicity and reproductive performance [3]: embryotoxic and reduced the reproductive performance | embryotoxicity and reproductive performance [4]: embryotoxic and reduced the reproductive performance | systemic IV clearance ([5]; 75 mg/m^2 IV): 147 L/h | bioavailability for the SC dose ([5]; 75 mg/m^2 SC vs IV): ~89% | tolerability ([5]; 75 mg/m^2 single SC injection or IV infusion over 10 minutes): generally well-tolerated | maximum tolerated doses [6]: up to 500 mg/m^2 | partial remission (MDS): rare | median survival time (AML): 19.3 months | median overall survival (higher-risk MDS; 75 mg/m^2/day x 7 days in 28 day cycles, N=179): 24.4 months | two-year survival (higher-risk MDS; azacitidine arm): 51% | tolerability (higher-risk MDS; in vivo): well tolerated

CC(=O)O[C@@]12CO[C@@H]1C[C@H](O)[C@@]1(C)C(=O)[C@H](O)C3=C(C)[C@@H](OC(=O)[C@H](O)[C@@H](NC(=O)OC(C)(C)C)c4ccccc4)C[C@@](O)([C@@H](OC(=O)c4ccccc4)[C@H]21)C3(C)C [docetaxel]
median overall survival [7]: 11.4 months | median time to disease progression [7]: 4.4 months
